Laboratory results taken from patent US20150216167A1 (Heinrich Heine Universitat Dusseldorf, priority 2011, published 2015).
pIC50: −log10 of the molar value.

How the values were obtained:
[1] = molecular target: T1, C4-PEPC (PEP carboxylase from F. trinervia) (Flaveria trinervia, UniProt P30694); assay: Spectrophotometric coupled assay with malate dehydrogenase, purified PEP carboxylases; format: biochemical; conditions: C4 (F. trinervia) versus C3 (F. pringlei) enzyme
T1 construct: histidine tag; made in house; host or cells: E. coli
T1 sequence (P30694 1-966): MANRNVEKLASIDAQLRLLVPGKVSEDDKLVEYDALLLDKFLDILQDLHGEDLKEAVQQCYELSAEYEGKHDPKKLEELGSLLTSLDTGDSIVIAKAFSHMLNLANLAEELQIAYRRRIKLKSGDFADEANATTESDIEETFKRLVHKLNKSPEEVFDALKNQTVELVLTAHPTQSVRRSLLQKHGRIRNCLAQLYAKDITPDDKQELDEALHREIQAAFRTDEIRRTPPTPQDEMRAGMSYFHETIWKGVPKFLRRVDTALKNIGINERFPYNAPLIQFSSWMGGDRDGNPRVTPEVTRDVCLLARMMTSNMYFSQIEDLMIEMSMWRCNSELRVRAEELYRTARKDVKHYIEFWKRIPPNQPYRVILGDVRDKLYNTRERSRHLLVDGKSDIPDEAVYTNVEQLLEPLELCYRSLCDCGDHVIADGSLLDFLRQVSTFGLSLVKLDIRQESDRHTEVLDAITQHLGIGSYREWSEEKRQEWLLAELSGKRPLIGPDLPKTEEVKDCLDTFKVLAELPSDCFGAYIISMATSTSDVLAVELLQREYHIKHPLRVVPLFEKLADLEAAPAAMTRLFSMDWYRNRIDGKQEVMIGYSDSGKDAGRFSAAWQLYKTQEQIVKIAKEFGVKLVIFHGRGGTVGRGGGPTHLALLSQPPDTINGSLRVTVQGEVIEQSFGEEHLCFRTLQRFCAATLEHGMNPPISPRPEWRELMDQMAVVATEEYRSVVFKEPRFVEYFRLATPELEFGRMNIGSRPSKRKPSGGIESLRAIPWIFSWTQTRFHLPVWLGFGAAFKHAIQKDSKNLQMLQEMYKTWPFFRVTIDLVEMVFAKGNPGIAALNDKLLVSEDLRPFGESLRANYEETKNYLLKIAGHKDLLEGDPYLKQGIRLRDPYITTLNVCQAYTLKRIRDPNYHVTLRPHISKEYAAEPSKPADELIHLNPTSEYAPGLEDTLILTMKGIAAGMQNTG
Excerpt: Inhibition of purified PEP carboxylases from F. pringlei and F. trinervia by compounds selected from the VDS was monitored by a spectrophotometric coupled assay with malate dehydrogenase which reduces the oxaloacetate formed by PEP carboxylase to malate. The simultaneous oxidation of NADH is followed at 340 nm with standard optical equipment. The concentration of the inhibitors selected from the VDS was varied in the coupled assay to determine the half maximal inhibitory concentration (IC50).
Inhibition of purified PEP carboxylases from F. pringlei and F. trinervia by compounds selected from the VDS was monitored by a spectrophotometric coupled assay with malate dehydrogenase which reduces the oxaloacetate formed by PEP carboxylase to malate. The simultaneous oxidation of NADH is followed at 340 nm with standard optical equipment. The concentration of the inhibitors selected from the VDS was varied in the coupled assay to determine the half maximal inhibitory concentration (1050).

PEP carboxylase = conditions: Pairoba et al. (1996); cited from earlier work
[2] = high clog values; cited from earlier work
bile salt hydrolase = conditions: cited from earlier work
[3] = tested on: pyruvate phosphate dikinase (PPDK); conditions: cited from earlier work

Molecule | inhibition of PEP carboxylase from C4 plant Amaranthus viridis (PEP carboxylase) | other results
Oc1cc(O)c2c(c1)O[C@H](c1ccc(O)c(O)c1)[C@@H](O)C2 [compound 1, (2R,3S)-2-(3,4-dihydroxyphenyl)-3,4-dihydro-2H-chromene-3,5,7-triol] |  | Selective Inhibition of a C4-PEPC ([1]; measured at 50 micromolar and 500 micromolar, FIG. 2): Selective Inhibition
Nc1nc2ncc(CNc3ccc(C(=O)N[C@@H](CCC(=O)O)C(=O)O)cc3)nc2c(=O)[nH]1 [compound 4, Folic Acid] |  | Selective Inhibition of a C4-PEPC ([1]; measured at 0.025 mM, FIG. 3): Selective Inhibition
O=c1c(O)c(-c2ccc(O)c(O)c2)oc2cc(O)ccc12 [fisetin] | inhibited | 
C=C1CCC[C@H]2[C@](C)(CC3=C(O)C(=O)C=C(OC)C3=O)[C@@H](C)CC[C@]12C [ilimaquinone] |  | solubility in water [2]: low solubility in water
O=c1c(O)c(-c2ccc(O)cc2)oc2cc(O)cc(O)c12 [kaempferol] | inhibited | 
O=c1c(O)c(-c2ccc(O)cc2O)oc2cc(O)cc(O)c12 [morin] | inhibited | 
O=c1c(O)c(-c2cc(O)c(O)c(O)c2)oc2cc(O)cc(O)c12 [myricetin] | inhibited | 
O=c1c(O)c(-c2ccc(O)c(O)c2)oc2cc(O)cc(O)c12 [quercetin] | inhibited | 
C/C=C(\C)c1cc(O)c(C)c2c1Oc1cc(O)cc(C)c1C(=O)O2 [unguinol] |  | inhibits the enzyme bile salt hydrolase (bile salt hydrolase): inhibits; selective inhibitors of PPDK ([3]; PPDK from C4 plants maize, millet and proso millet): selective inhibitors; pIC50 ([3]; isolated enzyme, read-out: half maximal inhibitory concentration (1050)): 4.40
baicalein/baicalin | inhibited | 
